# Assay results taken from a melting point compilation (Tetko et al.; mined from patent text by program, amines drawn as free bases though some values may be those of a salt).
row,melting point,Structure (SMILES)
1,> 320 °C,CS(=O)(=O)Nc1ccc(-c2ccc(C(=O)O)c(=O)[nH]2)cc1
2,78 to 79 °C,CC(C)c1nn(-c2ccc(F)cn2)cc1CCCO
3,105 to 106 °C,COC(=O)[C@H]1C=C(c2ccccc2)OC(=O)[C@H]1Cc1ccccc1
4,171 to 173 °C,CCSc1ccccc1N1CCN([C@@H]2Cc3c(OC)ccc(OC)c3C[C@H]2O)CC1 (relative stereo)
5,71 to 73 °C,N#CCc1cccc(CBr)c1[N+](=O)[O-]
6,217 to 220 °C,Cn1c(=O)n(CC(=O)O)c(=O)c2cc([N+](=O)[O-])ccc21
7,100 to 102 °C,CC(C)(C)c1cc(-c2nc(CN3CCCC3)no2)cc(C(C)(C)C)c1O
8,224 to 226 °C,O=C(Nc1ccc2[nH]c(=O)sc2c1)C(=O)N1CCC(Cc2ccc(F)cc2)CC1
9,148 to 149 °C,Cc1ccnc2c(Oc3ccc([N+](=O)[O-])cc3)cccc12
10,246 to 249 °C,COc1cccc(Cc2ccc(-c3cnn4c(O)ccnc34)cc2)c1
11,106 to 108 °C,O=[N+]([O-])c1ccc(F)c(-c2ccc(CO)cc2)c1
12,220 to 225 °C,CNc1nc(-c2ccccc2)c(-c2nc3ccccc3c(=O)n2-c2ccccc2C)s1
13,77 to 79 °C,CCN(c1nc(C)cc(C(=O)c2ccc3[nH]ccc3c2)n1)c1ccc(C(C)C)cc1Br
14,101 to 102 °C,O=S(=O)(c1cc(Cl)ccc1O)N1CCCC1
15,80 to 81 °C,CCOC(=O)c1ccnc(OCc2nc(-c3ccco3)oc2C)c1
16,93 to 94 °C,CCc1cc(O)n2ccnc2n1
17,158 to 160 °C,O=C(Nc1cccc(O)c1)C(=O)N1CCC(Cc2ccccc2)CC1
18,204 to 206 °C,Nc1ccc(S(=O)(=O)Nc2ccc(Cl)c3cc[nH]c23)cn1
19,66 °C,N#Cc1ccc(C(F)(F)C23CCCN2C(=O)N(c2cc(Cl)cc(Cl)c2)C3=O)cc1 (centres undefined)
20,190 to 191 °C,CCCCN1CCC(NS(=O)(=O)c2ccc(Nc3ccnc4cc(Cl)ccc34)cc2)CC1
21,194 to 196 °C,Cc1ccc(C(=O)NCc2ccc3c(c2)C(=O)N(C2CCC(=O)NC2=O)C3=O)cc1 (centres undefined)
22,51 to 53 °C,N#Cc1cnn(-c2c(Cl)cc(C(F)(F)F)cc2Cl)n1
23,150 to 152 °C,COc1ccnc(CCc2nc3cncnc3[nH]2)c1
24,49 to 50 °C,CCCCNC(=O)C(C)(O[Si](C)(C)C(C)(C)C)c1ccc([N+](=O)[O-])cc1 (centres undefined)
25,112 to 114 °C,Cc1ccc2cccc(OCc3c(Cl)ccc(OCCNC(=O)CCc4ccccc4)c3Cl)c2n1

row,melting point,Structure (SMILES)
1,166 °C,CN1CCN(C(=O)OC2C3=C(SCCS3)C(=O)N2c2ccccc2)CC1 (centres undefined)
2,173 to 179 °C,CCC/C(=C\C=O)c1ccc2c(c1)C(CC)(CC)OC(=O)N2
3,233 °C,CC(C)n1cc(-c2nc(C(N)=O)c(N)nc2-c2cccc(Cl)c2)ccc1=O
4,169 °C,O=C(N[C@H]1C[C@H](C(=O)O)Nc2cc(Cl)cc(Cl)c21)OCc1ccccc1 (relative stereo)
5,166 to 168 °C,Cc1c(Sc2ccc(Cl)cc2)nn(-c2ccc3c(c2)OCO3)c(=O)c1C#N
6,71 to 75 °C,CCOC(=O)C(=CNC1CC1)C(=O)c1cc(F)c(N2CCC(NC(C)=O)C2)nc1Cl (centres undefined)
7,> 250 °C,NC(=O)c1nc(-c2cccc(O)c2)nc2c1[nH]c(=O)n2-c1cccc2c1CCCC2
8,154 to 155 °C,CC(C)CCC1=Cc2c(F)cc(F)cc2N(C)C1C (centres undefined)
9,160 to 162 °C,CCC1(CC)CC(c2ccc(OC)c(OC)c2)=NN(C2CCN(C(=O)c3ccccc3OC)CC2)C1=O
10,148 to 150 °C,O=C(O)c1ccc(CN(C(=O)Nc2cc(C(F)(F)F)cc(C(F)(F)F)c2)c2ccc(C3CCCCC3)cc2)cc1
11,178 to 180 °C,C#CCON=C(C(=O)O)c1nc(NC(=O)C(F)(F)F)sc1Cl
12,137 to 139 °C,O=Cc1ccc2c(c1)Sc1ccc(F)cc1C=C2
13,216 to 220 °C,COc1c2c(cc3ccccc13)C(=O)NC2=O
14,140 to 144 °C,CCOC(=O)C1=C(COCc2nnc(C)s2)NC(C)=C(C(=O)OC)C1c1cccc(Cl)c1Cl (centres undefined)
15,188 to 190 °C,Cc1ccc(Sc2c(SCc3ccccc3)cc(C(=O)O)cc2S(=O)(=O)Cl)cc1
16,208 to 210 °C,Cc1nc(O)nc(C)c1N1CCCn2c1nc1c(Cl)ccc(C(OC(F)F)C(F)(F)F)c12 (centres undefined)
17,144 to 146 °C,COCOc1cccc(COc2cc3c(cc2-c2cc(C=CC(=O)O)ccc2OC)C(C)(C)CCC3(C)C)c1
18,180 to 183 °C,NCC#CCCCC(=O)O
19,208 to 210 °C,Cc1nc(NC(=O)NS(=O)(=O)c2ccccc2OC(Cl)=CCl)nc2c1CCO2
20,102 to 105 °C,CC(C)(C)OC(=O)N1CCC(=CC(=O)NCc2ccc(F)c(F)c2)CC1
21,177 to 179 °C,O=S(=O)(c1ccccc1)n1cc(I)c2c(OCc3ccccc3)ccnc21
22,> 260 °C,O=C1c2ccccc2C(=O)c2sc(-c3cccc(F)c3)nc21
23,100 to 102 °C,COc1ccc(C2=NNC(=O)CC2c2ccncc2)cc1 (centres undefined)
24,220 to 222 °C,O=C1NCCc2c(-c3cccs3)[nH]c3cccc1c23
25,100 to 102 °C,C=CCn1cc2c(c1)-c1ccc(Cl)cc1C(c1ccccc1F)=NC2

row,melting point,Structure (SMILES)
1,69 to 70 °C,Cc1c(Cc2cccnc2)sc2cc(Br)ccc12
2,122 to 124 °C,COC(=O)[C@H](c1ccccc1Cl)N1CCc2sc(OC(=O)C=Cc3ccccc3)cc2C1
3,137 to 138 °C,CCOc1nn(-c2ccc(C(F)(F)F)cn2)cc1CCCOc1cc(CCC(=O)O)n(C)n1
4,123 to 125 °C,O=C1c2ccccc2C=C(Cl)C(Cl)c2ccccc21 (centres undefined)
5,222 °C,CCOCN1C2=C(C(=O)CCC2)C(c2cccc([N+](=O)[O-])c2)C2=C1CCCC2=O
6,35 to 37 °C,COCCCCCCCCCCCCCCSCCCO
7,295 to 296 °C,CCCc1nc2ccc(C(=O)c3ccccc3)cc2n1Cc1ccc(C(=O)O)cc1
8,225 °C,O=CN(O)C(CS(=O)(=O)c1ccc(-c2ccc(C(F)(F)F)cc2)cc1)c1ccc(O)cc1 (centres undefined)
9,196 to 197 °C,O=C(Oc1cc(=O)[nH]cc1Cl)c1ccccc1
10,192 °C,CC(C)(C)C(=O)N[C@H]1CC[C@H](CCN2CCC(c3cccc4c3CCO4)CC2)CC1
11,276 to 278 °C,CSC1NC(=O)N(c2ccc(C)cc2)C(=O)N1
12,167 to 170 °C,CCc1ccc(SC2CCOC2=O)c(C(=O)O)c1 (centres undefined)
13,164 to 166 °C,COC(=O)CC(=O)/C=C/c1c(-c2ccc(F)cc2OC)n(C(C)C)c(=O)c2ccccc12
14,126 to 128 °C,CC(C)(C)OC(=O)NCC(=O)Nc1cccc(I)c1
15,124 to 127 °C,CC(C)(C)OC(=O)N1C2CCC1CN(CCCNc1ccc(C#N)cc1)C2
16,79 to 83 °C,N#CS/C=C\C(=O)Oc1ccccc1
17,37 °C,CCCCc1ccc(-c2ccc(-c3ccc(CC)cc3)cc2F)s1
18,178 to 179 °C,O=C(O)C(=NO)c1ccc(OCCOc2ccc3ccccc3c2)cc1
19,> 360 °C,O=C(O)/C=C/c1ccc2c(/C=C/C(=O)O)c[nH]c2c1
20,187 to 188 °C,COc1ccnc(Cl)c1NS(=O)(=O)c1nc2cc(F)nc(OC)n2n1
21,52 to 53 °C,CCCCCCCCCCCCCCCCS[C@H]1CCCO[C@H]1CO (relative stereo)
22,135 to 138 °C,CN(C)C(N)=Nc1cc(Cl)ccc1N1CCOCC1
23,173 to 175 °C,O=C1C(=O)c2ccc(-c3ccccc3)cc2C2=C1SCC1(CCN(CC(O)COc3ccc(F)cc3)CC1)O2 (centres undefined)
24,142 to 144 °C,O=S(=O)(Nc1ccc(Cl)cc1-c1cc(-c2ccc(Cl)cc2Cl)on1)C(F)(F)F
25,213 to 215 °C,Cc1noc(C)c1COCCn1cnc2c(N)nc3ccccc3c21

row,melting point,Structure (SMILES)
1,110 to 113 °C,CCOC(=O)C1COc2c(C=O)cc(Cl)c(Cl)c2O1 (centres undefined)
2,93 to 100 °C,COP(=O)(OC)C(C)C(NC(=O)OCc1ccccc1)C(=O)N[C@@H](Cc1ccccc1)[C@H](O)C(=O)N1C[C@@H](Cl)C[C@H]1C(=O)NC(C)(C)C (some centres undefined)
3,64 to 67 °C,[N-]=[N+]=NC[C@H]1CN(c2ccc(Br)cn2)C(=O)O1
4,88 to 90 °C,CC(=O)NC(=O)CCCCBr
5,75 to 77 °C,COCCN(CCOC)CC1=Cc2ccsc2S(=O)(=O)N1Cc1ccc(OC)cc1
6,152 °C,CON(C)S(=O)(=O)NC(=O)Nc1nc(C)cc(C)n1
7,214 °C,CC1=C(c2ccncc2)SC(O)C(=O)N1 (centres undefined)
8,223 to 224 °C,Cc1ccc(-c2ccc3c(c2)C=C(C(=O)Nc2ccc(CN4CCC(O)CC4)cc2)CC3)cc1
9,119 to 120 °C,CC(C)(C)c1ccc(C(=O)CCCCCc2ccccc2)cc1NC(=O)CC1c2ccccc2Oc2ccccc21
10,171 °C,CC(C)(C)OC(=O)NCc1nc(C(=O)ON2C(=O)CCC2=O)cs1
11,165 to 167 °C,CCCn1c(C)c2c(c1C)C(=O)C(C)=C(C)C2=O
12,180 to 182 °C,CN(C)C(=O)c1cc(-c2nccs2)[nH]c1C(CC1CCOCC1)c1ccc(S(=O)(=O)C2CC2)cc1 (centres undefined)
13,215 to 216 °C,Oc1c(C(=S)NCc2ccc(Cl)cc2)cnc2ccc(CN3CCOCC3)cc12
14,122 to 125 °C,Cc1oc(C(=O)NCc2ccc3c(c2)OCO3)c(C)c1-c1nc2ccc(C(=O)c3ccccc3)cc2[nH]1
15,155 to 156 °C,CN(NC(=O)c1ccccc1C(=O)O)C(=S)Nc1ccccc1
16,48 to 50 °C,COc1cc2c(cc1C(C)=O)CCCC2C (centres undefined)
17,> 250 °C,COc1ccc(-c2cc(F)c3c(c2)CC(CN)O3)cc1 (centres undefined)
18,148 to 149 °C,CC(C)Nc1cccnc1N1CCN(C(=O)c2ccc(C(=O)N3CCN(CCO)CC3)cc2)CC1
19,75 °C,CCOC(=O)CC(c1ccccc1)(c1ccccc1)c1ncc[nH]1
20,118 to 120 °C,Cc1cc(-c2ccc(S(N)(=O)=O)cc2)n(-c2ccc(C)c(C)c2)c1
21,104 °C,COC(=O)C=Cc1ccc(OCC2CCCCC2)cc1
22,198 to 200 °C,COc1ccc(-c2cc(=Nc3c(C)cc(C)cc3C)n(C)c3nnnn23)cc1OC

row,Structure (SMILES),melting point
1,N#Cc1nn(-c2c(Cl)cc(C(F)(F)F)cc2Cl)c(N)c1-c1cccs1,206 to 207 °C
2,CC1CC(c2cc3c(F)cccc3s2)CCN1 (centres undefined),63 to 65 °C
